One assay addresses PRMT1 (Homo sapiens, UniProt Q99873). The assay is described as follows: PRMT1 enzyme activity test. The conditions noted are these: 0.5 nM PRMT1, 3H-SAM, peptide. In kind it is biochemical. Here is the method:
PRMT1 enzyme activity test were performed in a buffer prepared on the same day 5 consisting of 10 mMTirs-HCl (pH=8.0), 0.01% Tween-20 and 1 mM DTT. The compounds were prepared to the highest inhibitor concentration ultimately required in the 100× reaction with 100% DMSO and then transferred to one well of a 384-well Echo plate (Echo-eligible 384-well polypropylene microplates 2.0, transparent, flat-bottomed) and sequentially diluted in the next well with a 3-fold dilution of 100% DMSO, and so on, with a total of 10 concentrations based on Precision. 100% DMSO was added to two empty wells to serve as control well without compound and control well without enzyme in the same 384-well Echo plate. 250 nL of compound was transferred from each well of the 384-well Echo plate to a 384-well assay plate (384-well polypropylene storage microplate) via the Echo 550 liquid processor. For wells with compounds and control well without compound, a mixture (15 uL) containing PRMT1 enzyme was added to the 384-well assay plate. For control wells without enzyme, the mixture containing the assay buffer (15 uL) was added instead. The compounds were allowed to incubate with PRMT1 for 15 minutes at room temperature, and then a mixture containing ^3H-SAM and peptide (10 uL) was added to start the reaction (final volume=25 uL). The final concentrations of the components were as follows: 0.5 nM for PRMT1, 0.25 uM for ^3H-SAM, 0.1 uM for the peptide, and 1% DMSO. After 120 min of incubation, the assay was terminated by the addition of non-radiolabeled SAM (5 uL) to a final concentration of 125 uM, which diluted 3H-SAM to a level at which its incorporation into the peptide substrate was no longer detected. 25 μL of the reaction solution from the 384-well assay plate was then transferred to a 384-well detection plate (Streptavidin FlashPlate HTS PLUS, high volume, 384 wells). The biotinylated peptide was allowed to bind to the surface of the antibiotic protein streptavidin for at least 60 minutes at room temperature. The Flashplate was then washed three times with 0.1% Tween-20 in a BioTek plate washer. Plates were read on a microplate counter (MicroBeta2) to measure the amount of ^3H-labeled peptide bound to the surface of the detection plate, measured in counts per minute (cpm).
The raw data were copied from the Reader and the inhibition values were calculated in Excel by Equation (1), Equation (1): Inh %=(CPMmax−CPMcmpd)/(CPMmax−CPMmin)*100, wherein the Max signal was obtained from the enzyme-substrate interaction and the Min signal was obtained from the substrate. IC50 values were obtained by fitting the data through equation (2) using XLFit add-in for Excel version […]. Equation (2): Y=Bottom+(Top-Bottom)/(1+((IC50/X)[…])), wherein, Y represents inhibition percentage and X represents compound concentration.

Another assay concerns Toledo cells. Description: Toledo cell proliferation inhibition assay. Conditions: Homo sapiens, Toledo, 144 h; six-day assay, CellTiter-Glo. Type of assay: cell-based. Here is the method: • A. Purpose: to determine the effects of compounds on Toledo cells through a six-day cell proliferation assay. • B. Reagents and materials: • 1. Cell culture medium: RPMI 1640+10% FBS • 2. 384-well cell culture plate (Corning, item #3764) • 3. 0.4% Taipan Blue Staining Solution (Thermo Fisher, item #T10282) • 4. cell counting plate (Thermo Fisher, item #C10228) • 5. 50 ml reagent reservoir (Corning, item #4870) • 6. 50 ml conical sterile polypropylene centrifuge tube (Thermo Fisher, item #339653) • 7. Automatic cell counter (Thermo Fisher, item #AMQAX1000) • 8. CellTiter-Glo Luminescent Cell Viability Detection Reagent (Promega, item #G7572) • 9. SpectraMax i3x Multi-Mode Enzyme Labeling Instrument (Megaman Molecular Instruments, item #5024062) • C. Experimental method • 1. Resuspending the cells with a pipette. • 2. 0.4% Taipan blue staining solution and Toledo cells were mixed in equal proportion, and the cells were counted using an automatic cell counter. • 3. Toledo cells were diluted to a final concentration of 2000 cells per well and transferred to a 50 ml reagent reservoir. • 4. Diluted Toledo cells were added to a 384-well cell culture plate, 40 ul per well. • 5. The cells were shortly centrifuged and settled. • 6. The cells were incubated in a 37° C., 5% CO2 cell culture incubator. • 7. The substrate in the CellTiter-Glo Luminescent Cell Viability Detection Reagent was mixed with the solution. • 8. After six days, the 384-well cell culture plate was taken from the incubator and 20 ul of configured CellTiter-Glo reagent was added to each well. • 9. 384-well cell culture platewasmixed in an orbital shaker for 30 minutes. • 10. Signal of luminescence was detected with a SpectraMax i3x multi-mode enzyme labeling instrument.

Some results are limits rather than exact numbers.

Chain of PRMT1 (Q99873 whole entry): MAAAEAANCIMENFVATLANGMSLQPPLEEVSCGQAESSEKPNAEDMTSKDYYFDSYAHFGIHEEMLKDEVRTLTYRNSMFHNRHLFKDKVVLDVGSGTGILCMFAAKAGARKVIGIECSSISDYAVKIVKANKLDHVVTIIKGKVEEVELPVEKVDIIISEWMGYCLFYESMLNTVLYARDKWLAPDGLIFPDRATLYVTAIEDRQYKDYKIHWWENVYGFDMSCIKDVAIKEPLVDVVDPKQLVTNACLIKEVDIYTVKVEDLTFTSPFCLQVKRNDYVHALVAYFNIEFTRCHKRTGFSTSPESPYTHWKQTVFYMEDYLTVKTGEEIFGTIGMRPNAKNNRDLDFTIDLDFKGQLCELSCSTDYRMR

In turn, `CNCCN(C)Cc1ccc(F)cc1C1CCc2ccc(C(F)(F)F)cc2CC1` (centres unmarked) [P002] had a concentration for half-maximal inhibition (IC50) against PRMT1 of less than 50 nM. For `CNCCN(C)Cc1cc(F)ccc1[C@H]1CC[C@@H](c2cccc(C)c2)CC1` [P006], the IC50 against PRMT1 was less than 50 nM; in the assay with Toledo cells, 1000 to 5000 nM. As for `CNCCN(C)Cc1cc(F)ccc1C1CCN(CCc2ccc(C(F)(F)F)cc2)CC1` [P010], the IC50 is less than 50 nM on PRMT1 and 1000 to 5000 nM in the assay on Toledo cells.

In the case of `CNCCN(C)Cc1ccc(F)cc1C1CCc2ccccc2CC1` [P011], the figures for the IC50 against PRMT1 and in the assay on Toledo cells were less than 50 nM and less than 1000 nM, respectively. With `CNCCN(C)Cc1ccc(F)cc1C1CCN(CCc2ccccc2)CC1` [P012], the IC50 was less than 50 nM against PRMT1 and less than 1000 nM in the assay on Toledo cells. For `CCc1cccc(N2CCC(c3cc(F)ccc3CN(C)CCNC)CC2)c1` [P013], in that order: less than 50 nM and 1000 to 5000 nM. On to `CCC1CC=C(c2ccccc2CN(C)CCNC)CC1` (centres unmarked) [P016], for which the 50% inhibitory concentration (IC50) is less than 50 nM against PRMT1 and less than 1000 nM in the assay with Toledo cells. Regarding `CNCCN(C)Cc1ccc(F)cc1C1CCCN(c2ccccc2)CC1` (centres unmarked) [P017], the values for the IC50 against PRMT1 and in the assay with Toledo cells were less than 50 nM and 1000 to 5000 nM, respectively.

Consider `CNCCN(C)Cc1cc(F)ccc1C1CCN(c2cccc(C)c2)CC1` [P020], for which the IC50 on PRMT1 was less than 50 nM; in the assay on Toledo cells, less than 1000 nM.

For `CNCCN(C)Cc1ccccc1C1CCCCC1` [P024], the IC50 against PRMT1 is less than 50 nM; with Toledo cells it was less than 1000 nM. Consider `CNCCN(C)Cc1ccc(F)cc1[C@H]1CC[C@@H](Oc2cc(C(F)(F)F)cc(C(F)(F)F)c2)CC1` [P026], for which the IC50 against PRMT1 was no less than 500 nM. For `CNCCN(C)Cc1ccccc1C1CCN(C(C)C)CC1` [P027], the IC50 against PRMT1 was less than 50 nM; in the assay on Toledo cells, 1000 to 5000 nM. For the molecule `CNCCN(C)Cc1ccccc1C1=CCN(C(C)C)CC1` [P028], the values for the IC50 against PRMT1 and in the assay on Toledo cells were less than 50 nM and no less than 5000 nM, respectively. Take `CNCCN(C)Cc1ccccc1N1CCc2ccccc2C1` [P029]: on PRMT1, the IC50 was less than 50 nM. Turning to `CNCCN(C)Cc1ccc(F)cc1N1CCCN(c2ccccc2)CC1` [P030], the IC50 at PRMT1 was less than 50 nM; with Toledo cells, no less than 5000 nM. For the molecule `CCC1CCN(c2ccccc2CN(C)CCNC)CC1` [P031], the IC50 against PRMT1 was less than 50 nM; with Toledo cells it was 1000 to 5000 nM. As for `CNCCN(C)Cc1ccc(F)cc1N1CCC(Oc2cc(C(F)(F)F)cc(C(F)(F)F)c2)CC1` [P032], the IC50 on PRMT1 is no less than 500 nM.

As for `CNCCN(C)Cc1ccccc1N1CCCCC1` [P033], the IC50 on PRMT1 is less than 50 nM; in the assay on Toledo cells it was 1000 to 5000 nM. With `CNCCN(C)Cc1nc(C)ccc1C1CCN(CCc2ccc(C(F)(F)F)cc2)CC1` [P034], the IC50 is less than 50 nM at PRMT1 and less than 1000 nM in the assay with Toledo cells. Regarding `CNCCN(C)Cc1ccccc1N1CCC(N(C)C)CC1` [P035], the IC50 at PRMT1 was 50 to 500 nM; in the assay on Toledo cells it was no less than 5000 nM. The molecule `CNCCN(C)Cc1ccc(C)nc1C1CCN(c2cc(C)c(F)cc2F)CC1` [P062] yielded an IC50 on PRMT1 of less than 50 nM.

Consider `CNCCN(C)Cc1ncccc1C#Cc1cccc(C)c1` [P091], for which the IC50 at PRMT1 was no less than 500 nM.

At PRMT1, `CNCCN(C)Cc1ncccc1C1CCN(C)CC1` [P152] displayed an IC50 of less than 50 nM.

Take `CNCCN(C)Cc1ccc(-c2ncc[nH]2)cc1C1CCN(c2cccc(C)c2)CC1` [P154]: the IC50 at PRMT1 is less than 50 nM. The molecule `CNCCN(C)Cc1ccc(=O)[nH]c1C1CCN(c2cccc(C)c2)CC1` [P211] displayed a half-maximal inhibitory concentration (IC50) against PRMT1 of 50 to 500 nM. Take `CNCCN(C)Cc1cc(C(N)=O)ccc1C1CCN(c2cccc(C)c2)CC1` [P220]: the IC50 on PRMT1 lay within 50 to 500 nM. `CNCCN(C)Cc1ccc2nncn2c1C1CCN(c2cccc(C)c2)CC1` [P232] had an IC50 against PRMT1 of 50 to 500 nM. `CNCCN(C)Cc1ncccc1C1CCN(C(=O)C(C)C)CC1` [P235] had an IC50 against PRMT1 of less than 50 nM. On to `CNCCN(C)Cc1ncccc1C1CCN(C(C)(C)O)CC1` [P244], for which, at PRMT1, the IC50 was less than 50 nM. In turn, `CNCCN(C)Cc1ncccc1C1CCOCC1` [P245] came in with an IC50 against PRMT1 of less than 50 nM. The same measure, in the same setting: as for `CNCCN(C)Cc1ncccc1C1CCCOC1` (centres unmarked) [P246], the figure is no less than 500 nM; as for `CNCCN(C)Cc1ncccc1C1CCCCO1` (centres unmarked) [P247], 50 to 500 nM; as for `CNCCN(C)Cc1ncccc1C1CCN(CCOCCOCCOCCOCCOCCN2CCC(c3cccnc3CN(C)CCNC)CC2)CC1` [P257], less than 50 nM.

At PRMT1, `CNCCN(C)Cc1ccc2[nH]nnc2c1C1CCN(c2cccc(C)c2)CC1` [P265] yielded an IC50 of less than 50 nM.

The molecule `CNCCN(C)Cc1ncccc1N1CCC(OCCOC)CC1` [P274] displayed an IC50 against PRMT1 of less than 50 nM. `CNCCN(C)Cc1ncccc1C1CCN(c2ccnnc2)CC1` [P289]: the IC50 against PRMT1 is less than 50 nM.

On PRMT1, `CNCCN(C)Cc1ncccc1N1CCC(O)CC1` [P294] returned an IC50 of less than 50 nM. Still for that read-out and setting: as for `CNCCN(C)Cc1ncccc1N1CCc2ccc(S(C)(=O)=O)cc2CC1` [P295], the figure is less than 50 nM; as for `CNCCN(C)Cc1ncccc1C1CCN(c2ccc(C(N)=O)cc2)CC1` [P299], less than 50 nM; as for `CNCCN(C)Cc1ncccc1N1CCC(OCC(=O)NC)CC1` [P322], less than 50 nM.

Turning to `NCCCCc1ccccc1N1CCc2cc(F)c(F)cc2CC1` [P350], the IC50 at PRMT1 was no less than 500 nM. On PRMT1, `CNCCN(C)C(C)c1ccccc1N1CCc2cc(F)c(F)cc2CC1` (centres unmarked) [P351] came in with an IC50 of 50 to 500 nM. On PRMT1, `CNCCN(C)Cc1ccc(OC)nc1C1CCN(c2cccc(C)c2)CC1` [P352] returned a half-inhibitory concentration (IC50) of 50 to 500 nM. The molecule `CNCCN(C)Cc1ccc(NC(=O)NC)nc1C1CCN(c2cccc(C)c2)CC1` [P353] yielded an IC50 at PRMT1 of less than 50 nM. Molecule `CNCCN(C)Cc1ccc(Nc2ccc(F)cc2)nc1C1CCN(c2cccc(C)c2)CC1` [P354] displayed an IC50 on PRMT1 of 50 to 500 nM. For the molecule `CNCCN(C)Cc1ccc(Nc2ncc[nH]2)nc1C1CCN(c2cccc(C)c2)CC1` [P355], the half-inhibitory concentration (IC50) at PRMT1 is less than 50 nM.

With `CNCCN(C)Cc1ccc(NS(C)(=O)=O)nc1C1CCN(c2cccc(C)c2)CC1` [P357], on PRMT1, the IC50 lay in the range of 50 to 500 nM. On the same count and under the same terms, with `CNCCN(C)Cc1ccc(NC)nc1C1CCN(c2cccc(C)c2)CC1` [P358] the figure was less than 50 nM; with `CNCCN(C)Cc1nc(N)cnc1C1CCN(c2cccc(C)c2)CC1` [P359], 50 to 500 nM; with `CNCCN(C)Cc1ccc(N2CCOC2=O)nc1C1CCN(c2cccc(C)c2)CC1` [P360], 50 to 500 nM. Consider `CNCCN(C)Cc1ccc(CN2CCCC2)nc1C1CCN(c2cccc(C)c2)CC1` [P361], for which the IC50 against PRMT1 is less than 50 nM. In turn, `CNCCN(C)Cc1ccc(NCCNCC(=O)OC)nc1C1CCN(c2cccc(C)c2)CC1` [P362] came in with an IC50 against PRMT1 of 50 to 500 nM. For the molecule `CNCCN(C)Cc1ccc(NC(=O)N(C)C)nc1C1CCN(c2cccc(C)c2)CC1` [P363], the IC50 on PRMT1 was in the range of 50 to 500 nM. For the molecule `CNCCN(C)Cc1ccc(NS(=O)(=O)N(C)C)nc1C1CCN(c2cccc(C)c2)CC1` [P365], at PRMT1, the IC50 is 50 to 500 nM. In turn, `CNCCN(C)Cc1ccc(Nc2nc3ccccc3[nH]2)nc1C1CCN(c2cccc(C)c2)CC1` [P366] registered an IC50 on PRMT1 of less than 50 nM. As for `CCOC(=O)c1cnc(Nc2ccc(CN(C)CCNC)c(C3CCN(c4cccc(C)c4)CC3)n2)[nH]1` [P367], the IC50 at PRMT1 is less than 50 nM. The same measure, in the same setting: with `Cc1cccc(N2CCC(c3nc(N)cnc3CN(C)CCN(C)C)CC2)c1` [P368] the figure was 50 to 500 nM; with `Cc1cccc(N2CCC(c3nc(N)cnc3CN(C)CCN)CC2)c1` [P369], less than 50 nM.

For the origin of these results see US20240307409A1, “ARGININE METHYLTRANSFERASE INHIBITOR AND USE THEREOF” (Cytosinlab Therapeutics Co., Ltd., priority 2021, published 2024).
